Measured values published in patent US9701669B2, “Preparation and use of 7a-amide substituted- 6,6-difluoro bicyclic himbacine derivatives as PAR-1 receptor antagonists” (Merck Sharp & Dohme Corp., priority 2013, dated 2017).
Read-outs that look alike come from different tables or passages of the source.

Legend:
[1] = target: human Ether-á-go-go Related Gene (hERG) ion channel (Homo sapiens (Human), UniProt Q12809); assay: MK-499 Filter Binding Assay
Experimental: This assay is used to evaluate the potential of a compound to cause drug-induced long QT syndrome.
Drug cardiac arrhythmia is an important safety concern for pharmaceutical development and health regulatory authorities.
Then, 30 μL wash buffer (10 mM HEPES/NaOH, pH 7.4, 130 mM NaCl, 2 mM MgCl2, 1 mM CaCl2) equilibrated to RT were added to each well of the assay plate and subsequently transferred to the filter plate. The assay mixture was aspirated through the filter plate using a Biotek ELx405™ washer. The filter plate was washed twice with 100 μl cold wash buffer per wash and well and then dried in a drying oven for at least 75 min at 55° C. Afterwards, the bottom of each filter plate was heat sealed with a solid foil seal, then 10 μL of Microscint™ 0 (Perkin Elmer) were added to each well of the filter plate and finally, the top of each filter plate was sealed with a clear seal. The plates were stored for at least 20 min in a MicroBeta2 reader (Perkin Elmer) before they are counted (60 sec/well).

[2] = target: PAR-1 receptor (Homo sapiens (Human), UniProt P25116); assay: PAR-1 FLIPR Assay; assay type: cell-based; conditions: for IC50: HEK 293 cells, calcium signal after PAR-1 selective receptor-activating peptide at 80% activation
Experimental: This assay measures the potency of the inventive compounds as PAR-1 receptor antagonists.
Frozen HEK 293 Cells were plated in 384-well PDL coated plates at 12000 cells/well in 50 uL of DMEM media containing 10% FBS, pen/strep/L-Glutamine and non-essential amino acids, incubated overnight at 37° C./5% CO2. Media was then removed from the cells, incubated with 33 ul of Calcium-5 dye in assay buffer (Hank's buffer containing 20 mM HEPES, 0.04% Chaps and 2.5 mM Probenecid) for 60 minutes at 37° C. 2 uL of varying concentrations of compound in 40% DMSO in assay buffer (final DMSO concentration is 2.3%) were then added to the cells and incubated at 25° C. for 30 minutes. […] The range of peptide was from 1.5-3 μM. The final volume was 40 uL/well, with 2% DMSO. […] The data were analyzed by taking the peak signal over a portion of the range of the 60 scans and dividing this signal by the minimum signal for that same range.

[3] = membranes from HEK293 cell line expressing hERG, [35S]MK-0499 radioligand, read-out: MK499 IC50

Sequence of human Ether-á-go-go Related Gene (hERG) ion channel (Q12809 whole entry): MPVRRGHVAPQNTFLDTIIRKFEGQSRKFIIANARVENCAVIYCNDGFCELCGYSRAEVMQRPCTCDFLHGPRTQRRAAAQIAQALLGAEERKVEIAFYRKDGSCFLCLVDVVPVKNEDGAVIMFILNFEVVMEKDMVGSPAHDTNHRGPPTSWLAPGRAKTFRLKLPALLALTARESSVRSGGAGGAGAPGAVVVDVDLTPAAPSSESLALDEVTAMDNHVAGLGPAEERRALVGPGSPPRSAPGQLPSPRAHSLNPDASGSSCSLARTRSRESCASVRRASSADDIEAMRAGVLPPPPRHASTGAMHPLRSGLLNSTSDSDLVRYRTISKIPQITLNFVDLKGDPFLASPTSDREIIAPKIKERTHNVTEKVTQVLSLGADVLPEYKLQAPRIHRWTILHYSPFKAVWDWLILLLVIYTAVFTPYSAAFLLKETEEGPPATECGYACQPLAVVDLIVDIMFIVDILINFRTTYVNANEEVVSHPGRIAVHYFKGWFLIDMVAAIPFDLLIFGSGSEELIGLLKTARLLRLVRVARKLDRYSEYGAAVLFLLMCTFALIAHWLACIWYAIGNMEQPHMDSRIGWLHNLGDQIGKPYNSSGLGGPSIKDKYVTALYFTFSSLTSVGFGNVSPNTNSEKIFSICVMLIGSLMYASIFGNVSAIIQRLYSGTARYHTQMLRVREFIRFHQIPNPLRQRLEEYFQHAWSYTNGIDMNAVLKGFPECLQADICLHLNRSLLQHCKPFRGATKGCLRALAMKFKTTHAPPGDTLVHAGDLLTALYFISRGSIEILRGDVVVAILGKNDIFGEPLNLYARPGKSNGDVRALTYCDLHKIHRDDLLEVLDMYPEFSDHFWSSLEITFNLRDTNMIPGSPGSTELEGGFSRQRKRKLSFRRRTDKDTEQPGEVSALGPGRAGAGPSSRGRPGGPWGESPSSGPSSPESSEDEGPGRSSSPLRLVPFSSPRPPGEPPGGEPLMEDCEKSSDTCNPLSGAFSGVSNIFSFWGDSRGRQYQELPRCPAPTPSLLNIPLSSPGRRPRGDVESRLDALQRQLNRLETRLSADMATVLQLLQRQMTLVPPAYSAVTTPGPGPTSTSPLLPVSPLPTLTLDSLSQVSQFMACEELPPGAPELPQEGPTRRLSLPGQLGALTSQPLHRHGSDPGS
Sequence of PAR-1 receptor (P25116 22-425): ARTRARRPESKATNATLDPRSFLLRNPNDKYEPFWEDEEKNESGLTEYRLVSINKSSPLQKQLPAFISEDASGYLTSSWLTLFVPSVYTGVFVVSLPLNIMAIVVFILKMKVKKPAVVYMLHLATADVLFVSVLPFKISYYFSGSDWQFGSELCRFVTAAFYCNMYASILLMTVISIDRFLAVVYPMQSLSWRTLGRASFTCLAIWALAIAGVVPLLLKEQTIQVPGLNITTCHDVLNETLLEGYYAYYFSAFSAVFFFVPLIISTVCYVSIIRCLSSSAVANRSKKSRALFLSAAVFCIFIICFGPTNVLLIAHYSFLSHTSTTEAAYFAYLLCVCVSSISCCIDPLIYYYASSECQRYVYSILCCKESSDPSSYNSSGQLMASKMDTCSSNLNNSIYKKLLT

Row | Structure (SMILES) | IC50 [1, 3] [µM] | PAR-1 FLIPR IC50 ([2]; unit printed as 'mn' (apparent misprint of nM), same assay as E1, unit of the source corrected) [nM] | IC50 [2] [nM] | IC50 ([1]; human, pH 7.4) [µM]
1 | COC(C(N)=O)[C@@]12CC(F)(F)[C@@H](C)[C@H](/C=C/c3ccc(-c4ccccc4C#N)cn3)[C@@H]1[C@@H](C)OC2=O (mixture of isomers) [Example 19, (S and R)-2-((1R,3aR,6S,7R,7aS)-7-((E)-2-(5-(2-cyanophenyl)pyridin-2-yl)vinyl)-5,5-difluoro-1,6-dimethyl-3-oxooctahydroisobenzofuran-3a-yl)-2-methoxyacetamide] | 47.7 | 3.02 |  | 
2 | C[C@H]1OC(=O)[C@]2(C(O)C(N)=O)CC(F)(F)[C@@H](C)[C@H](/C=C/c3ccc(-c4ccccc4C#N)cn3)[C@H]12 (mixture of isomers) [Example 20, (S and R)-2-((1R,3aR,6S, 7R,7aS)-7-((E)-2-(5-(2-cyanophenyl)pyridin-2-yl)vinyl)-5,5-difluoro-1,6-dimethyl-3-oxooctahydro-isobenzofuran-3a-yl)-2-hydroxyacetamide] |  |  | 4.41 | 
3 | C[C@H]1OC(=O)[C@]2(C(N)=O)CC(F)(F)[C@@H](C)[C@H](/C=C/c3ccc(-c4ccccc4C#N)cn3)[C@H]12 [Example 1, (1R,3aR,6S,7R,7aS)-7-((E)-2-(5-(2-cyanophenyl)pyridin-2-yl)vinyl)-5,5-difluoro-1,6-dimethyl-3-oxooctahydroisobenzofuran-3a-carboxamide] |  |  | 2.93 | 
4 | Cc1cccc(-c2ccc(/C=C/[C@@H]3[C@@H]4[C@@H](C)OC(=O)[C@]4(C(N)=O)CC(F)(F)[C@H]3C)nc2)c1F [Example 2, (1R,3aR,6S,7R, 7aS)-5,5-difluoro-7-((E)-2-(5-(2-fluoro-3-methylphenyl)pyridin-2-yl)vinyl)-1,6-dimethyl-3-oxooctahydro-isobenzofuran-3a-carboxamide] | 13 |  | 3.8 | 
5 | Cc1c(F)cccc1-c1ccc(/C=C/[C@@H]2[C@@H]3[C@@H](C)OC(=O)[C@]3(C(N)=O)CC(F)(F)[C@H]2C)nc1 [Example 3, (1R,3aR, 6S,7R,7aS)-5,5-difluoro-7-((E)-2-(5-(3-fluoro-2-methylphenyl)pyridin-2-yl)vinyl)-1,6-dimethyl-3-oxooctahydro-isobenzofuran-3a-carboxamide] | 12 |  | 1.37 | 
6 | Cc1nc(/C=C/[C@@H]2[C@@H]3[C@@H](C)OC(=O)[C@]3(C(N)=O)CC(F)(F)[C@H]2C)ccc1-c1ccccc1C#N [Example 4, (1R,3aR,6S,7R, 7aS)-7-((E)-2-(5-(2-cyanophenyl)-6-methylpyridin-2-yl)vinyl)-5,5-difluoro-1,6-dimethyl-3-oxooctahydro-isobenzofuran-3a-carboxamide] |  |  |  | 60
7 | C[C@H]1OC(=O)[C@]2(CC(N)=O)CC(F)(F)[C@@H](C)[C@H](/C=C/c3ccc(-c4ccccc4C#N)cn3)[C@H]12 [Example 5, 2-((1R,3aR,6S,7R,7aS)-7-((E)-2-(5-(2-cyanophenyl)pyridin-2-yl)vinyl)-5,5-difluoro-1,6-dimethyl-3-oxooctahydroisobenzofuran-3a-yl)acetamide] |  |  | 3.14 | 
8 | C[C@H]1OC(=O)[C@]2(C(N)=O)CC(F)(F)[C@@H](C)[C@H](/C=C/c3ccc(-c4cccc5c4OC(F)(F)O5)cn3)[C@H]12 [Example 10, (1R,3aR,6S,7R,7aS)-7-((E)-2-(5-(2,2-difluorobenzo[d][1,3]dioxol-4-yl)pyridin-2-yl)vinyl)-5,5-difluoro-1,6-dimethyl-3-oxooctahydroisobenzofuran-3a-carboxamide] | 15.4 |  | 4.49 | 
9 | C[C@H]1OC(=O)[C@]2(C(N)=O)CC(F)(F)[C@@H](C)[C@H](/C=C/c3ccc(-c4cccnc4C#N)cn3)[C@H]12 [Example 11] | 60 |  | 9.68 | 
10 | C[C@H]1OC(=O)[C@]2(N3CC(C(N)=O)C3)CC(F)(F)[C@@H](C)[C@H](/C=C/c3ccc(-c4ccccc4C#N)cn3)[C@H]12 [Example 12, 1-((1R,3aS,6S,7R,7aS)-7-((E)-2-(5-(2-cyanophenyl)pyridin-2-yl)vinyl)-5,5-difluoro-1,6-dimethyl-3-oxo-octahydroisobenzofuran-3a-yl)azetidine-3-carboxamide] | 16.3 |  | 5.7 | 
11 | C[C@H]1OC(=O)[C@]2(N3CC(C(N)=O)C3)CC(F)(F)[C@@H](C)[C@H](/C=C/c3ccc(-c4cccc(F)c4)cn3)[C@H]12 [Example 13, 1-((1R,3aS,6S, 7R,7aS)-5,5-difluoro-7-((E)-2-(5-(3-fluorophenyl)pyridin-2-yl)vinyl)-1,6-dimethyl-3-oxo-octahydro-isobenzofuran-3a-yl)azetidine-3-carboxamide] |  |  | 13.9 | 
12 | C[C@H]1OC(=O)[C@]2(CCC(N)=O)CC(F)(F)[C@@H](C)[C@H](/C=C/c3ccc(-c4ccccc4C#N)cn3)[C@H]12 [Example 14, 3-((1R,3aR,6S,7R,7aS)-7-((E)-2-(5-(2-cyanophenyl)pyridin-2-yl)vinyl)-5,5-difluoro-1,6-dimethyl-3-oxooctahydroisobenzofuran-3a-yl)propanamide] |  |  | 4.4 | 
13 | C[C@H]1OC(=O)[C@]2(CCC(N)=O)CC(F)(F)[C@@H](C)[C@H](/C=C/c3ccc(-c4cccnc4C#N)cn3)[C@H]12 [Example 15, 3-((1R,3aR,6S, 7R,7aS)-7-((E)-2-(2′-cyano-[3,3′-bipyridin]-6-yl)vinyl)-5,5-difluoro-1,6-dimethyl-3-oxooctahydro-isobenzofuran-3a-yl)propanamide] |  |  | 6.34 | 60
14 | COc1ncccc1-c1ccc(/C=C/[C@@H]2[C@@H]3[C@@H](C)OC(=O)[C@]3(CC(N)=O)CC(F)(F)[C@H]2C)nc1 [Example 16, 2-((1R,3aR,6S, 7R,7aS)-5,5-difluoro-7-((E)-2-(2′-methoxy-[3,3′-bipyridin]-6-yl)vinyl)-1,6-dimethyl-3-oxooctahydro-isobenzofuran-3a-yl)acetamide] | 25.9 |  | 104 | 
15 | C[C@H]1OC(=O)[C@]2(CC(N)=O)CC(F)(F)[C@@H](C)[C@H](/C=C/c3ccc(-c4cccnc4C#N)cn3)[C@H]12 [Example 17, 2-((1R,3aR,6S, 7R,7aS)-7-((E)-2-(2′-cyano-[3,3′-bipyridin]-6-yl)vinyl)-5,5-difluoro-1,6-dimethyl-3-oxooctahydro-isobenzofuran-3a-yl)acetamide] |  |  | 21.2 | 
16 | C[C@H]1OC(=O)[C@]2(NCC(N)=O)CC(F)(F)[C@@H](C)[C@H](/C=C/c3ccc(-c4ccccc4C#N)cn3)[C@H]12 [Example 18, 2-(((1R,3aS,6S,7R,7aS)-7-((E)-2-(5-(2-cyanophenyl)pyridin-2-yl)vinyl)-5,5-difluoro-1,6-dimethyl-3-oxooctahydroisobenzofuran-3a-yl)amino)acetamide] |  |  | 4.3 | 
17 | C[C@H]1OC(=O)[C@]2(C(C)(C)C(N)=O)CC(F)(F)[C@@H](C)[C@H](/C=C/c3ccc(-c4ccccc4C#N)cn3)[C@H]12 [Example 21, 2-((1R,3aR,6S,7R,7aS)-7-((E)-2-(5-(2-cyanophenyl)pyridin-2-yl)vinyl)-5,5-difluoro-1,6-dimethyl-3-oxooctahydroisobenzofuran-3a-yl)-2-methylpropanamide] |  |  | 17.1 | 
